Reference: patent US8945853B2, “Detection of intracellular binding events by measuring protein abundance” (DiscoveRx Corporation, priority 2012, dated 2015)
Each block holds one compound with its values, some of them ahead of it.

Legend:
BCL-2 / PL-Bax = BCL-2 / PL-Bax (Homo sapiens, UniProt P10415); assay: BCL-2 co-expressed with PL-Bax in U2OS cells, disruption by small molecules (FIG. 7A); assay type: cell-based; details: for HillSlope / Bottom (best-fit) / Top (best-fit): PL-Bax; for Bottom (best-fit) / Top (best-fit) / effect on BCL-2 stabilization of Bax: U2OS, overnight; for Bottom (best-fit) / Top (best-fit): luminescence
Sequence of BCL-2 / PL-Bax (P10415 whole entry): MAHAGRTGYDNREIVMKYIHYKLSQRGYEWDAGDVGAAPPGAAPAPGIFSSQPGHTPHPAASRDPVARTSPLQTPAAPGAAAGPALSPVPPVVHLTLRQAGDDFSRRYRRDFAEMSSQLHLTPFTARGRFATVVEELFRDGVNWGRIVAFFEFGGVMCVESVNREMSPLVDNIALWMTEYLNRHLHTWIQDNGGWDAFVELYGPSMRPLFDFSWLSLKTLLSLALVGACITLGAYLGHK
Method: (§1) Interaction of BCL-2 with a peptide test compound (Bim, Bak, and Bax) was studied.
(§2) The native BCL-2 was co-expressed with each of the ProLabel fusions in U2OS cells. Small molecules that are reported to disrupt BCL-2 interactions were then applied to the cells and incubated overnight.
(§3) Cells were transduced with the indicated target PL-fusion and the untagged protein Bcl-2. The cells were treated with the indicated compounds overnight and the remaining target-PL fusion was detected by lysing the cells in the presence of EA and substrate. Luminescence was measured 30 minutes later.

BCL-2 / PL-Bim = BCL-2 / PL-Bim (Homo sapiens, UniProt P10415); assay: BCL-2 co-expressed with PL-Bim in U2OS cells, disruption by small molecules (FIG. 7B); assay type: cell-based; details: for HillSlope / Bottom (best-fit) / Top (best-fit): PL-Bim; for Bottom (best-fit) / Top (best-fit) / effect on BCL-2/Bim stabilization: U2OS, overnight; for Bottom (best-fit) / Top (best-fit): luminescence
Sequence of BCL-2 / PL-Bim (P10415 whole entry): as above
Method: as §1, §2, §3

BCL-2 / PL-Bak = BCL-2 / PL-Bak (Homo sapiens, UniProt P10415); assay: BCL-2 co-expressed with PL-Bak in U2OS cells, disruption by small molecules (FIG. 7C); assay type: cell-based
Sequence of BCL-2 / PL-Bak (P10415 whole entry): as above
Method: as §1, §2, §3

CYP 17A-PL fusion = CYP 17A-PL fusion (Homo sapiens, UniProt P05093); assay: CYP17A-PL fusion stabilization in HEK cells (FIG. 11); assay type: cell-based
Sequence of CYP 17A-PL fusion (P05093 with tags, fused parts or gaps): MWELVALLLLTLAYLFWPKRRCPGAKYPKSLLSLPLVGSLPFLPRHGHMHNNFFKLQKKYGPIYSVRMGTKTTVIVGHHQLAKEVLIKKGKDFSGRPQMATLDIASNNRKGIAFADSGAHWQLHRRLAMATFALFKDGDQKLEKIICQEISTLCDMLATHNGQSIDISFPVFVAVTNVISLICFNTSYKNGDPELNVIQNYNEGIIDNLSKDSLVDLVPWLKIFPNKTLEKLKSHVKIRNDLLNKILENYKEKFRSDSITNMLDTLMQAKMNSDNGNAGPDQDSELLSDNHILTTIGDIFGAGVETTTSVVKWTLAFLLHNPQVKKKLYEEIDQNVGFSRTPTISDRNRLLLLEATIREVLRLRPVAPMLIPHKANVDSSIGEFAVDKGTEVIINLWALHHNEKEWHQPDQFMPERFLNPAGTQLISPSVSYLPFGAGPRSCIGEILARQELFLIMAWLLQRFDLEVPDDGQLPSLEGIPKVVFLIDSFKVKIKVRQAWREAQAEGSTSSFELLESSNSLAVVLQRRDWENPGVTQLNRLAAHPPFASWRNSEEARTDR
Method: (§4) HEK cells were transduced with fusion protein expression construct. The cells were then treated with different compounds for 3-6 hrs at 37° C. the fusion proteins were then quantified to analyze the effect of different compounds on the stabilization of fusion proteins.

BRD4 (1)-PL fusion = assay: Bromodomain-PL fusion stability in HEK cells; assay type: cell-based; details: 6 hrs at 37° C.
Method: To study the effect of compound binding, fusion proteins were prepared using fragments of BRD4 (1) (Accession No. NM_058243), BRD2 (1) (Accession No. NM_005104) and BRDT (1) (Accession No. NM_001242806) (SEQ ID NO. 13, 14 and 15 respectively) and prolabel (PL). The expression construct containing the fusion proteins were used to transducer the HEK cells. Cells were plated in a 384 well-plate and incubated overnight at 37° C./5% CO2 to allow the cells to attach and gro.

G9A(918-1198)-PL = G9A(918-1198)-PL (Homo sapiens, UniProt Q96KQ7); assay: Half-life of G9A catalytic domain-PL fusion in A549 cells after cycloheximide (FIG. 10); assay type: cell-based, humans
Sequence of G9A(918-1198)-PL (Q96KQ7 with tags, fused parts or gaps): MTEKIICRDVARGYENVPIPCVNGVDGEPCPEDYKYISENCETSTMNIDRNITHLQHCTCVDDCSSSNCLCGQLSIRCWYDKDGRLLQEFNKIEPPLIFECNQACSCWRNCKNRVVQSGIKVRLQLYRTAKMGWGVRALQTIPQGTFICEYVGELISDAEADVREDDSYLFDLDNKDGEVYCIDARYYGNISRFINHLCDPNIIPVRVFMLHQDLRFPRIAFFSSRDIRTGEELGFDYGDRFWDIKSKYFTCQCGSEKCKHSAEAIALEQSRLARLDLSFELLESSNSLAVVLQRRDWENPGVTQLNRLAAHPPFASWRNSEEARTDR
Method: Methyltransferases are a group of transferases enzymes involved in DNA methylation. G9a methyltransferase methylates lysine 9 of histone H3 and is present in humans.
The enzyme donor PL fused to the catalytic domain of G9A was expressed in A549 cells, which were plated I a 384-well plate and incubated overnight at 37° C./5% CO2 to allow the cells to attach and grow. […] Both the batches were then treated with cycloheximide to prevent further protein production and the half-life of the fusion protein in both the batches were calculated as shown in FIG. 10. […] UNC0638 is commercially available and is an inhibitor of G9a/GLP methyltransferases. See, e.g. http (colon slash slash) apps.thesgc.org/chemical_probes/UNC0638/#overview, SGC product literature.

[1] = target: T1, CYP 19A amino acids 1-503-PL fusion (Homo sapiens, UniProt P11511); assay: CYP19A-PL fusion stabilization in HEK cells; assay type: cell-based; details: data not shown
T1 construct: expressed in transfected cells; host or cells: HEK
T1 sequence (P11511 1-503): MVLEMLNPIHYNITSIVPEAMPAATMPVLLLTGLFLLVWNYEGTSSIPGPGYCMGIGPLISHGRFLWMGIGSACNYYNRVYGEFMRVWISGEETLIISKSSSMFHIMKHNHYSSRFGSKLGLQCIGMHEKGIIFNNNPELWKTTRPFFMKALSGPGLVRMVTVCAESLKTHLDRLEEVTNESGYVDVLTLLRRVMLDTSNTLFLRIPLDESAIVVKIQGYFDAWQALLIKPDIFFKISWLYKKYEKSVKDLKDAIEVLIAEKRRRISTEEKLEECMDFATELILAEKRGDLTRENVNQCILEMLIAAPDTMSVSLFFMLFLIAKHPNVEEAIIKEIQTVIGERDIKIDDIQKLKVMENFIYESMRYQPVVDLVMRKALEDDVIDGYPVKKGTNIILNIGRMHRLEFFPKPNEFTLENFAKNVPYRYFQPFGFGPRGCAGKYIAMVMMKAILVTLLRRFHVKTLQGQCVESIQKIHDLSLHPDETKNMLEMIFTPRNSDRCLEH
Method: as §4
Arimidex® anastrazole is available from AstraZeneca and is known to bind to aromatase. YM511 (chemical Name: 4-[[(4-Bromophenyl)methyl]-4H-1,2,4-triazol-4-ylamino]benzonitrile) is also an aromatase inhibitor. CYP19 is also known as aromatase.

BLK (241-494)-PL fusion [2] = target: T2, BLK (241-494)-PL fusion (Homo sapiens, UniProt P51451); assay: Specificity of binding compounds, BLK-PL fusion in U2OS cells (FIG. 9B); assay type: cell-based; set-up: BLK peptide containing amino acids from 241-494 were fused with the PL; expressed in transfected cells
T2 sequence (P51451 241-494): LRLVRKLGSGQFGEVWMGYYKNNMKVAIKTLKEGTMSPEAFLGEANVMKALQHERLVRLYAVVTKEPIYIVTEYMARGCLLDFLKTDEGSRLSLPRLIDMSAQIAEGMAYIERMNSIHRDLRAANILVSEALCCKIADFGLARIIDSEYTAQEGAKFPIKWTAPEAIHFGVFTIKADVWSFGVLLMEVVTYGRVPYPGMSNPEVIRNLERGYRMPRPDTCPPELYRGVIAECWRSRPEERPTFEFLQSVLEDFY

BLK (241-494)-PL fusion [3] = target: T2, BLK (241-494)-PL fusion; assay: BLK-PL fusions of varying sequence length treated with dasatinib, EFC chemiluminescence; assay type: cell-based; set-up: BLK peptide containing amino acids from 241-494 were fused with the PL; expressed in transfected cells; HEK cells are also named; details: 241-494 fusion compared with the other BLK sequence lengths; 3 hours
Method: A number of fusions were constructed that included varying amounts of the protein sequence centered around the kinase active site as defined by homology to other kinases. E.g. fusion containing protein BLK amino acid numbers 241-494, 246-494, 251-494, 256-494, 261-494 and 266-494 were made.
The expression construct containing the fusion protein was used to transduce the HEK cells. The cells were then incubated in the presence of dasatinib for 3 hours.
BLK-PL fusions were then quantified by adding lysis buffer, EA and chemiluminescent substrate. […] Dasatinib, N-(2-chloro-6-methylphenyl)-2-[[6-[4-(2-hydroxyethyl)-1-piperazinyl]-2-methyl-4-pyrimidinyl]amino]-5-thiazole carboxamide monohydrate, is an oral multi-BCR/ABL and Src family tyrosine kinase inhibitor approved for use in patients with chronic myelogenous leukemia (CML).
Results showing the binding of dasatinib to BLK containing amino acid sequence 241-494 are depicted in FIG. 3. The expression plasmids (e.g. 241-494) indicated in the legend are named to show the amino acid locations of the start and stop of the BLK sequence used. The plasmids were used to transduce parental U2OS cells. The cells were then treated with dasatanib for 3 hrs and the BLK-PL fusions were quantified by adding lysis buffer, EA and chemiluminescent substrate.

[4] = PL-Bak, U2OS, overnight, luminescence

- EC50 (CYP 17A-PL fusion; stabilization, gain of signal): 0.252 nM
Structure (SMILES): C[C@]12CC[C@H](O)CC1=CC[C@@H]1[C@@H]2CC[C@]2(C)C(c3cccnc3)=CC[C@@H]12 [Abiraterone]

- HillSlope (CYP 17A-PL fusion): 1083
- stabilization of CYP 17 A domain fusion (CYP 17A-PL fusion; HEK cells, 3-6 hrs): stabilization
- Bottom (best-fit) (CYP 17A-PL fusion; HEK cells, 3-6 hrs at 37° C.): 1.230e+006
- Top (best-fit) (CYP 17A-PL fusion; HEK cells, 3-6 hrs at 37° C.): 2.348e+006
Structure (SMILES): CC(=O)N1CCN(c2ccc(OCC3COC(Cn4ccnc4)(c4ccc(Cl)cc4Cl)O3)cc2)CC1 (stereo not drawn) [Ketoconazole]

- half-life of fusion protein compared to fusion protein not exposed to the binding partner (G9A(918-1198)-PL; A549 cells, cycloheximide): greater
- percent change in luminescence (G9A(918-1198)-PL; after 100 minutes of cycloheximide, A549 cells pretreated 6 hrs): minimal
Structure (SMILES): COc1cc2c(NC3CCN(C(C)C)CC3)nc(C3CCCCC3)nc2cc1OCCCN1CCCC1 [UNC0638]

- stabilization of CYP 19A fusion peptide [1]: stabilized
Structure (SMILES): CC(C)(C#N)c1cc(Cn2cncn2)cc(C(C)(C)C#N)c1 [anastrazole]

More lines, now with the values behind:

Structure (SMILES): CC1(C)CCC(c2ccc(Cl)cc2)=C(CN2CCN(c3ccc(C(=O)NS(=O)(=O)c4ccc(N[C@H](CCN5CCOCC5)CSc5ccccc5)c(S(=O)(=O)C(F)(F)F)c4)cc3)CC2)C1 [ABT-263]
- HillSlope (BCL-2 / PL-Bax): −1.216
- Bottom (best-fit) (BCL-2 / PL-Bax): 5900
- Top (best-fit) (BCL-2 / PL-Bax): 31800
- effect on BCL-2 stabilization of Bax (BCL-2 / PL-Bax): somewhat similar effect
- HillSlope (BCL-2 / PL-Bim): −1.635
- Bottom (best-fit) (BCL-2 / PL-Bim): 6740
- Top (best-fit) (BCL-2 / PL-Bim): 136900
- effect on BCL-2/Bim stabilization (BCL-2 / PL-Bim): prevented the stabilizing effect
- HillSlope (BCL-2 / PL-Bak; PL-Bak): −0.4082
- Bottom (best-fit) (BCL-2 / PL-Bak; [4]): −14342
- effect on BCL-2 binding to and stabilization of Bak (BCL-2 / PL-Bak; overnight, U2OS): little effect

Structure (SMILES): CN(C)CC[C@H](CSc1ccccc1)Nc1ccc(S(=O)(=O)NC(=O)c2ccc(N3CCN(Cc4ccccc4-c4ccc(Cl)cc4)CC3)cc2)cc1[N+](=O)[O-] [ABT-737]
- HillSlope (BCL-2 / PL-Bax): −1.485
- Bottom (best-fit) (BCL-2 / PL-Bax): 6973
- Top (best-fit) (BCL-2 / PL-Bax): 31292
- effect on BCL-2 stabilization of Bax (BCL-2 / PL-Bax): somewhat similar effect
- HillSlope (BCL-2 / PL-Bim): −1.898
- Bottom (best-fit) (BCL-2 / PL-Bim): 7774
- Top (best-fit) (BCL-2 / PL-Bim): 139290
- effect on BCL-2/Bim stabilization (BCL-2 / PL-Bim): prevented the stabilizing effect
- HillSlope (BCL-2 / PL-Bak; PL-Bak): −0.5348
- Bottom (best-fit) (BCL-2 / PL-Bak; [4]): 5446
- Top (best-fit) (BCL-2 / PL-Bak; [4]): 11602
- effect on BCL-2 binding to and stabilization of Bak (BCL-2 / PL-Bak; overnight, U2OS): little effect

Structure (SMILES): Cc1sc2c(c1C)C(c1ccc(Cl)cc1)=N[C@@H](CC(=O)OC(C)(C)C)c1nnc(C)n1-2 [JQ1]
- stability of fusion protein following compound binding (BRD4 (1)-PL fusion): increase in stability

Structure (SMILES): N#Cc1ccc(N(Cc2ccc(Br)cc2)n2cnnc2)cc1 [YM511, 4-[[(4-Bromophenyl)methyl]-4H-1,2,4-triazol-4-ylamino]benzonitrile]
- stabilization of CYP 19A fusion peptide [1]: stabilized

Structure (SMILES): Cc1nc(Nc2ncc(C(=O)Nc3c(C)cccc3Cl)s2)cc(N2CCN(CCO)CC2)n1.O [dasatinib, N-(2-chloro-6-methylphenyl)-2-[[6-[4-(2-hydroxyethyl)-1-piperazinyl]-2-methyl-4-pyrimidinyl]amino]-5-thiazole carboxamide monohydrate]
- binding specificity (BLK (241-494)-PL fusion [2]; BLK-PL vs MEK-PL fusions): specific for binding to the BLK fusion containing the ATP binding site
- signal (BLK-PL fusion) compared to cells incubated with U0126 and PD035901 (BLK (241-494)-PL fusion [2]; U2OS cells, over a period of time): gain in signal
- affinity of BLK-PL fusion with dasatinib (BLK (241-494)-PL fusion [3]): highest affinity
